Data taken from US20050112573A1, “Method of detecting toxic substance” (priority 2001, published 2005).

System: yeast genes (level of expressed mRNA)
Assay: DNA chip analysis of expressed mRNA of yeast genes after 2 h culture with a toxic chemical substance
Type: cell-based, Saccharomyces cerevisiae S288C
Experimental: Yeast (Saccharomyces cerevtisiae S288C (α SUC2mal mel gap2 CUP1)) were cultured at 25° C. on YPD medium (yeast extract 1%, polypepton 2%, glucose 2%). One of toxic chemical substances was added to the cell at logarithmic growth phase, and the cell was further cultured for two hours. Cell was cultured without any chemical substance in the same condition, and was used as control. Concentrations of the chemical substances were defined to inhibit the growth of the yeast but not lead to death.
After the completion of cultivation, the culture was centrifuged to collect the cells. To the cells, sodium acetate buffer (50 mM sodium acetate, 10 mM EDTA, 1% SDS) was added, and the mixture was shaken at 65° C. for five minutes, followed by returning to room temperature, and obtaining the supernatant, which procedure was repeated two times. To the supernatant, ½ amount of a solution of phenol/chloroform was added, and the mixture was centrifuged to give a supernatant, which was added with an equal amount of chloroform, and the mixture was centrifuged to give a supernatant. To the supernatant, an equal amount of isopropanol containing 0.3 M sodium acetate was added, and the mixture was allowed to stand at room temperature for 30 minutes, after which the mixture was centrifuged to give a sediment of the whole RNAs. Seventy % ethanol was added to the sediment, and the mixture was again centrifuged to give a sediment, which was then dried and dissolved in water. mRNA was isolated from the whole RNAs as followings. In view of the fact that a poly A chain is attached to the 3′ terminus of mRNA, a polynucleotide having a poly T structure which was immobilized on the surface of latex beads was used to trap the mRNA, and then the mRNA was washed and eluted with spine column (Oligotex-dT30<Super>mRNA Purification Kit, Takara). Reverse transcription of the mRNA was conducted with a reverse transcriptase (Super Script II Reverse Transcriptase; catalogue No. 18064-014, GibcoBRL) using fluorescence-labeled nucleotides to give cDNAs that were introduced with Cy3-dUTP or Cy5-dUTP during the reverse transcription.
The labeled cDNAs were dissolved in TE buffer (10 mM Tris-HCl/1 mM EDTA, pH8.0), and the solution was dropped on the DNA chip containing the whole genes of yeast (DNA Chip Research Inc. Japan) so that the cDNAs were hybridized on the DNA chip at 65° C. for over 12 hours. The fluoresces intensity of the DNA chip was read with a scanner, and the ratio relative to the fluorescence intensity resulting from the absence of chemical substance was estimated as the following, which is shown in Tables 1 to 9: [formula]
In the Tables, “Intensity” indicated in the rightmost column is a value of the level of expressed mRNA of each gene in control cells as divided by the average level of the expressions of the whole genes.

COc1cc(CNC(=O)CCCCC=CC(C)C)ccc1O [(12), 8-methyl-N-vanillyl-6-nonenamide]
1.2: level of expressed mRNA in the presence of chemical substance/in its absence (gene YMR272C) | level of expressed mRNA in the presence of chemical substance/in its absence (gene YNR002C) | level of expressed mRNA in the presence of chemical substance/in its absence (gene YOL143C) | level of expressed mRNA in the presence of chemical substance/in its absence (gene YOL157C) | level of expressed mRNA in the presence of chemical substance/in its absence (gene YOR136W)
0.5: The level of expressed mRNA in the presence of chemical substance/absence: YJL032W (gene YJL032W) | level of expressed mRNA in the presence of chemical substance/in its absence (gene YLR300W) | The level of expressed mRNA in the presence of chemical substance/absence: YNL191W (gene YNL191W) | The level of expressed mRNA in the presence of chemical substance/absence: YNL194C (gene YNL194C) | The level of expressed mRNA in the presence of chemical substance/absence: YOR155C (gene YOR155C)
1.9: level of expressed mRNA in the presence of chemical substance/in its absence (gene YOL153C)
1.7: level of expressed mRNA in the presence of chemical substance/in its absence (gene YMR105C)
1.8: level of expressed mRNA in the presence of chemical substance/in its absence (gene YNL231C)
0.7: The level of expressed mRNA in the presence of chemical substance/absence: YHR105W (gene YHR105W) | The level of expressed mRNA in the presence of chemical substance/absence: YHR180W (gene YHR180W) | The level of expressed mRNA in the presence of chemical substance/absence: YIL108W (gene YIL108W) | The level of expressed mRNA in the presence of chemical substance/absence: YIL127C (gene YIL127C) | level of expressed mRNA in the presence of chemical substance/in its absence (gene YIL167W) | level of expressed mRNA in the presence of chemical substance/in its absence (gene YJL088W) | The level of expressed mRNA in the presence of chemical substance/absence: YJR044C (gene YJR044C) | The level of expressed mRNA in the presence of chemical substance/absence: YLR226W (gene YLR226W) | level of expressed mRNA in the presence of chemical substance/in its absence (gene YLR307W) | The level of expressed mRNA in the presence of chemical substance/absence: YMR068W (gene YMR068W) | The level of expressed mRNA in the presence of chemical substance/absence: YMR071C (gene YMR071C) | level of expressed mRNA in the presence of chemical substance/in its absence (gene YNL322C) | The level of expressed mRNA in the presence of chemical substance/absence: YOR253W (gene YOR253W)
1.0: The level of expressed mRNA in the presence of chemical substance/absence: YHL006C (gene YHL006C) | level of expressed mRNA in the presence of chemical substance/in its absence (gene YHR092C) | The level of expressed mRNA in the presence of chemical substance/absence: YHR134W (gene YHR134W) | The level of expressed mRNA in the presence of chemical substance/absence: YJL097W (gene YJL097W) | level of expressed mRNA in the presence of chemical substance/in its absence (gene YJL132W) | The level of expressed mRNA in the presence of chemical substance/absence: YMR115W (gene YMR115W) | The level of expressed mRNA in the presence of chemical substance/absence: YMR160W (gene YMR160W) | The level of expressed mRNA in the presence of chemical substance/absence: YNL058C (gene YNL058C) | The level of expressed mRNA in the presence of chemical substance/absence: YNL063W (gene YNL063W) | level of expressed mRNA in the presence of chemical substance/in its absence (gene YNL169C) | level of expressed mRNA in the presence of chemical substance/in its absence (gene YNR019W) | level of expressed mRNA in the presence of chemical substance/in its absence (gene YOR336W)
0.9: The level of expressed mRNA in the presence of chemical substance/absence: YHR083W (gene YHR083W) | The level of expressed mRNA in the presence of chemical substance/absence: YIL165C (gene YIL165C) | level of expressed mRNA in the presence of chemical substance/in its absence (gene YIR035C) | The level of expressed mRNA in the presence of chemical substance/absence: YJR030C (gene YJR030C) | The level of expressed mRNA in the presence of chemical substance/absence: YKL059C (gene YKL059C) | level of expressed mRNA in the presence of chemical substance/in its absence (gene YKL067W) | The level of expressed mRNA in the presence of chemical substance/absence: YKL094W (gene YKL094W) | The level of expressed mRNA in the presence of chemical substance/absence: YKL100C (gene YKL100C) | level of expressed mRNA in the presence of chemical substance/in its absence (gene YLR273C) | The level of expressed mRNA in the presence of chemical substance/absence: YLR427W (gene YLR427W) | The level of expressed mRNA in the presence of chemical substance/absence: YML013W (gene YML013W) | The level of expressed mRNA in the presence of chemical substance/absence: YML118W (gene YML118W) | The level of expressed mRNA in the presence of chemical substance/absence: YMR114C (gene YMR114C) | The level of expressed mRNA in the presence of chemical substance/absence: YMR258C (gene YMR258C) | The level of expressed mRNA in the presence of chemical substance/absence: YNL026W (gene YNL026W) | level of expressed mRNA in the presence of chemical substance/in its absence (gene YNL045W) | level of expressed mRNA in the presence of chemical substance/in its absence (gene YNL130C) | The level of expressed mRNA in the presence of chemical substance/absence: YNL200C (gene YNL200C) | The level of expressed mRNA in the presence of chemical substance/absence: YNL276C (gene YNL276C) | The level of expressed mRNA in the presence of chemical substance/absence: YNR051C (gene YNR051C) | The level of expressed mRNA in the presence of chemical substance/absence: YOL026C (gene YOL026C) | The level of expressed mRNA in the presence of chemical substance/absence: YOL030W (gene YOL030W) | level of expressed mRNA in the presence of chemical substance/in its absence (gene YOR130C) | The level of expressed mRNA in the presence of chemical substance/absence: YOR138C (gene YOR138C) | The level of expressed mRNA in the presence of chemical substance/absence: YOR267C (gene YOR267C) | The level of expressed mRNA in the presence of chemical substance/absence: YOR325W (gene YOR325W)
1.3: The level of expressed mRNA in the presence of chemical substance/absence: YJL017W (gene YJL017W) | level of expressed mRNA in the presence of chemical substance/in its absence (gene YMR271C) | level of expressed mRNA in the presence of chemical substance/in its absence (gene YNL012W) | level of expressed mRNA in the presence of chemical substance/in its absence (gene YNL037C) | level of expressed mRNA in the presence of chemical substance/in its absence (gene YOL058W)
1.5: level of expressed mRNA in the presence of chemical substance/in its absence (gene YJR159W) | level of expressed mRNA in the presence of chemical substance/in its absence (gene YKR039W)
0.8: The level of expressed mRNA in the presence of chemical substance/absence: YHR181W (gene YHR181W) | The level of expressed mRNA in the presence of chemical substance/absence: YJL037W (gene YJL037W) | The level of expressed mRNA in the presence of chemical substance/absence: YJL049W (gene YJL049W) | level of expressed mRNA in the presence of chemical substance/in its absence (gene YJR142W) | level of expressed mRNA in the presence of chemical substance/in its absence (gene YJR148W) | The level of expressed mRNA in the presence of chemical substance/absence: YKL051W (gene YKL051W) | The level of expressed mRNA in the presence of chemical substance/absence: YKR040C (gene YKR040C) | The level of expressed mRNA in the presence of chemical substance/absence: YLR097C (gene YLR097C) | level of expressed mRNA in the presence of chemical substance/in its absence (gene YLR142W) | The level of expressed mRNA in the presence of chemical substance/absence: YLR415C (gene YLR415C) | The level of expressed mRNA in the presence of chemical substance/absence: YML041C (gene YML041C) | level of expressed mRNA in the presence of chemical substance/in its absence (gene YMR296C) | level of expressed mRNA in the presence of chemical substance/in its absence (gene YNL106C) | The level of expressed mRNA in the presence of chemical substance/absence: YNL181W (gene YNL181W) | The level of expressed mRNA in the presence of chemical substance/absence: YNL212W (gene YNL212W) | The level of expressed mRNA in the presence of chemical substance/absence: YNL253W (gene YNL253W) | The level of expressed mRNA in the presence of chemical substance/absence: YNL265C (gene YNL265C) | level of expressed mRNA in the presence of chemical substance/in its absence (gene YNR059W) | The level of expressed mRNA in the presence of chemical substance/absence: YOR022C (gene YOR022C) | The level of expressed mRNA in the presence of chemical substance/absence: YOR087W (gene YOR087W)
1.1: The level of expressed mRNA in the presence of chemical substance/absence: YHL021C (gene YHL021C) | level of expressed mRNA in the presence of chemical substance/in its absence (gene YHR037W) | level of expressed mRNA in the presence of chemical substance/in its absence (gene YHR190W) | level of expressed mRNA in the presence of chemical substance/in its absence (gene YIL033C) | level of expressed mRNA in the presence of chemical substance/in its absence (gene YIL154C) | level of expressed mRNA in the presence of chemical substance/in its absence (gene YJL196C) | The level of expressed mRNA in the presence of chemical substance/absence: YML029W (gene YML029W) | The level of expressed mRNA in the presence of chemical substance/absence: YML079W (gene YML079W) | level of expressed mRNA in the presence of chemical substance/in its absence (gene YML110C) | level of expressed mRNA in the presence of chemical substance/in its absence (gene YNL104C) | level of expressed mRNA in the presence of chemical substance/in its absence (gene YNR033W) | level of expressed mRNA in the presence of chemical substance/in its absence (gene YOL126C) | level of expressed mRNA in the presence of chemical substance/in its absence (gene YOR099W)
0.6: The level of expressed mRNA in the presence of chemical substance/absence: YHL037C (gene YHL037C) | The level of expressed mRNA in the presence of chemical substance/absence: YHR095W (gene YHR095W) | level of expressed mRNA in the presence of chemical substance/in its absence (gene YHR137W) | The level of expressed mRNA in the presence of chemical substance/absence: YKL090W (gene YKL090W) | The level of expressed mRNA in the presence of chemical substance/absence: YKL097C (gene YKL097C) | level of expressed mRNA in the presence of chemical substance/in its absence (gene YLR180W) | The level of expressed mRNA in the presence of chemical substance/absence: YLR338W (gene YLR338W) | The level of expressed mRNA in the presence of chemical substance/absence: YLR339C (gene YLR339C) | The level of expressed mRNA in the presence of chemical substance/absence: YLR392C (gene YLR392C) | level of expressed mRNA in the presence of chemical substance/in its absence (gene YMR189W) | The level of expressed mRNA in the presence of chemical substance/absence: YNL176C (gene YNL176C) | The level of expressed mRNA in the presence of chemical substance/absence: YOR088W (gene YOR088W)
